Source: patent US8207204B2, “Triazole derivatives as SCD inhibitors” (GlaxoSmithKline LLC, priority 2007, dated 2012)

Compound | melting point
NC(=O)c1cnc(NC(=O)c2cn(Cc3ccc(Cl)c(Cl)c3)nn2)s1 [Example 36, N-[5-(Aminocarbonyl)-1,3-thiazol-2-yl]-1-[(3,4-dichlorophenyl)methyl]-1H-1,2,3-triazole-4-carboxamide] | 280.9 °C
Cc1c(C(=O)Nc2nnc(CO)s2)nnn1Cc1ccc(Cl)c(Cl)c1 [Example 42, 1-[(3,4-Dichlorophenyl)methyl]-N-[5-(hydroxymethyl)-1,3,4-thiadiazol-2-yl]-5-methyl-1H-1,2,3-triazole-4-carboxamide] | 153.6 °C
Cc1nc(NC(=O)c2nnn(Cc3ccc(Cl)c(Cl)c3)c2C)sc1CO [Example 41, 1-[(3,4-Dichlorophenyl)methyl]-N-[5-(hydroxymethyl)-4-methyl-1,3-thiazol-2-yl]-5-methyl-1H-1,2,3-triazole-4-carboxamide] | 161.8 °C
Cc1nc(NC(=O)c2nnn(Cc3ccc(Cl)c(Cl)c3)c2C)sc1C(=O)N1CCOCC1 [Example 24, 1-[(3,4-Dichlorophenyl)methyl]-5-methyl-N-[4-methyl-5-(4-morpholinyl-carbonyl)-1,3-thiazol-2-yl]-1H-1,2,3-triazole-4-carboxamide] | 202.9 °C

More lines, now with the values ahead:

melting point | Compound
192.2 °C | Cc1nnc(NC(=O)c2nnn(Cc3ccc(Cl)c(Cl)c3)c2C)o1 [Example 6, 1-[(3,4-Dichlorophenyl)methyl]-5-methyl-N-(5-methyl-1,3,4-oxadiazol-2-yl)-1H-1,2,3-triazole-4-carboxamide]
216.9 °C | Cc1nc(NC(=O)c2nnn(Cc3ccc(Cl)c(Cl)c3)c2C)sc1C(=O)N1CCN(C)CC1 [Example 25, 1-[(3,4-Dichlorophenyl)methyl]-5-methyl-N-{4-methyl-5-[(4-methyl-1-piperazinyl)carbonyl]-1,3-thiazo1-2-yl}-1H-1,2,3-triazole-4-carboxamide]
191 °C | Cc1c(C(=O)Nc2cc(CO)ccn2)nnn1Cc1ccc(Cl)c(Cl)c1 [Example 44, 1-[(3,4-Dichlorophenyl)methyl]-N-[4-(hydroxymethyl)-2-pyridinyl]-5-methyl-1H-1,2,3-triazole-4-carboxamide]
125 °C | CCOC(=O)Cc1nc(NC(=O)c2nnn(Cc3ccc(Cl)c(Cl)c3)c2C)sc1C [Example 12, Ethyl {2-[({1-[(3,4-dichlorophenyl)methyl]-5-methyl-1H-1,2,3-triazol-4-yl}carbonyl)amino]-5-methyl-1,3-thiazol-4-yl}acetate]
